Experimental data from patent publication US6531476B1, “Piperazine derivatives inhibiting human immunodeficiency virus replication” (Universite Paris 7 - Denis Diderot, priority 1998, dated 2003).
Read-outs that look alike come from different tables or passages of the source.

Assays:
[1] = tested on: HIV-1/Ba-L; test: Inhibition of HIV replication in monocyte-derived macrophages (reverse transcriptase activity in culture supernatants); type: cell-based; details: dose-effect curve FIG. 1
Source text: a) Production and Culturing of the Macrophages
The macrophages were obtained by differentiation of monocytes which were themselves isolated from peripheral blood mononuclear cells.
To do this, the peripheral blood mononuclear cells were separated from the other elements of the blood by centrifugation on a ficoll gradient (MSL 2000, from Eurobio) and washed twice in RPMI 1640 medium (from Boehringer Mannheim). The monocytes were isolated from these mononuclear cells by counter-current elutriation. The fractions collected were analyzed using a cell counter-analyzer (from Coulter) and the cells corresponding to each fraction were phenotyped and then analyzed using a flow cytometer (FACS, from Becton Dickinson). The purity of the monocytes thus collected is at least equal to 95%.
These monocytes were then suspended in a culture medium (medium A below) comprising RPMI 1640 medium (from Boehringer Mannheim) supplemented with 10% fetal calf serum (from Boehringer Mannheim) decomplemented beforehand by treatment at 56° C. for 30 minutes, L-glutamine (2 mM) and a solution containing 100 μg/ml of 3 antibiotics: penicillin, streptomycin and neomycin (PSN, from Life Technologies), at a rate of 1 million monocytes per ml of culture medium. […]

[2] = tested on: HIV-1/Ba-L; test: Various procedures for treating monocyte-derived macrophages (before/after infection, maintained or not); type: cell-based; details: Human immunodeficiency virus 1, BAL, Macrophage, triplicate, read-out: percentage of inhibition (I) of the viral replication
Protocol: Various procedures for treating monocyte-derived macrophages with the piperazine derivatives in accordance with the invention were tested using a protocol similar to that described in Example 14.
In these tests, however, the macrophage cultures were divided into three groups:
a first group (group 1 below) in which the macrophages were treated with the piperazine derivatives 24 hours before being infected with HIV (i.e. on D3) and the treatment was maintained up to D28, as described in Example 14,
a second group (group 2 below) in which the macrophages were treated 24 hours after having been infected with HIV (i.e. on D5) and the treatment was maintained up to D28, and
a third group (group 3 below) in which the macrophages were treated 24 hours before being infected with HIV (i.e. on D3), but the treatment was not subsequently maintained.
In all cases, the piperazine derivatives were used at a dose of 100 μM and the tests were carried out in triplicate.

[3] = tested on: monocyte-derived macrophages; test: Cytotoxicity: neutral red viability test on monocyte-derived macrophage cultures; type: cell-based; details: 100 μM, FIG. 3
Protocol: The cytotoxicity of the piperazine derivatives in accordance with the invention was evaluated by measuring, by means of three different tests:
a test with neutral red, the viability of peripheral blood mononuclear cell cultures and of monocyte-derived macrophage cultures treated with the piperazine derivatives in accordance with the invention and by comparing the results obtained with those observed for “control” cultures, i.e. peripheral blood mononuclear cell cultures or monocyte-derived macrophage cultures prepared under the same conditions but in the absence of any treatment with said piperazine derivatives.
The neutral red test is also a test which is used on adherent cells and which was used to measure the effects of the piperazine derivatives in accordance with the invention on the monocyte-derived macrophages. […]
In all cases, the viability of the peripheral blood mononuclear cells and of the monocyte-derived macrophages was measured before culturing them, and then at each renewal of the culture media.

melting point [°C]	Compound	doses at which inhibitory activity on HIV replication is shown [1]	inhibition at 100 µM ([2]; 24 h, Group 2: treated 24 hours after infection (D5), maintained up to D28, average ± standard deviation) [%]	inhibition at 100 µM ([2]; Group 1: treated 24 hours before infection (D3), maintained up to D28, average ± standard deviation) [%]	inhibition at 100 µM ([2]; Group 3: treated 24 hours before infection (D3), treatment not maintained, average ± standard deviation) [%]	viability of monocyte-derived macrophage cultures versus control cultures (number of live cells) [3]
	CCN(CC)C(=O)OCC1CN(C(=O)c2cc(OC)c(OC)c(OC)c2)CCN1C(=O)c1cc(OC)c(OC)c(OC)c1 (stereo not shown) [Example 2, 1,4-bis(3′,4′,5′-trimethoxybenzoyl)-2-(N,N-diethylaminocarbonyloxymethyl)piperazine]	above 1 μM	88 ± 12	91 ± 2	73 ± 2	no significant difference
105.8	CCN(CC)C(=O)OCC1CN(C(=S)c2cc(OC)c(OC)c(OC)c2)CCN1C(=O)c1cc(OC)c(OC)c(OC)c1 (stereo not shown)					
134	CCN(CC)C(=O)OCC1CN(C(=O)c2cc(OC)c(OC)c(OC)c2)CCN1Cc1ccccc1.Cl (stereo not shown) [Example 8, 1-benzyl-4-(3′,4′,5′-trimethoxybenzoyl)-2-(N,N-diethylaminocarbonyloxymethyl)piperazine hydrochloride]					
